The values below come from ChEMBL document CHEMBL1129392, “Design, synthesis, and evolution of a novel, selective, and orally bioavailable class of thrombin inhibitors: P1-argininal derivatives incorporating P3-P4 lactam sulfonamide moieties” (J Med Chem, 1996).

In experiment [1] the target is T1, Serine protease 1 (Homo sapiens, UniProt P07477). The experiment in a line: In vitro for inhibition of serine protease Trypsin.
Experiment [2] concerns the target T2, Coagulation factor X (Homo sapiens, UniProt P00742).
Description: In vitro for inhibition of Coagulation factor X
Experiment [3] concerns the target T3, Prothrombin (Homo sapiens, UniProt P00734). The experiment in a line: In vitro for inhibition of serine protease thrombin(FIIa).
Experiment [4] addresses T3, Prothrombin. As to the kind of experiment: compound was tested in vitro for inhibition of serine protease thrombin(FIIa).
Another experiment deals with T4, Trypsin II (Bos taurus, UniProt Q29463).
T4 sequence (Q29463 whole entry): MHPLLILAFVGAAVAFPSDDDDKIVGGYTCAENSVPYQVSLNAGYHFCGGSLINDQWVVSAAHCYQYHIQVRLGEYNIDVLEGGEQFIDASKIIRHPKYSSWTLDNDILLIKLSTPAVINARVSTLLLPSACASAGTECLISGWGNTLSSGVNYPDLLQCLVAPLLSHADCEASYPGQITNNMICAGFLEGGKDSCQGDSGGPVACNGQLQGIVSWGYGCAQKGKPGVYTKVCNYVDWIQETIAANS
As to the kind of experiment: compound was tested in vitro for inhibition of serine protease Trypsin.

Experiment [5] concerns the target T3, Prothrombin. The experiment in a line: compound was tested in vitro for inhibition of serine protease thrombin (FIIa); inactive.
In experiment [6] the target is T2, Coagulation factor X. As to the kind of experiment: compound was tested in vitro for inhibition of Coagulation factor X; inactive.
Experiment [7] concerns the target T1, Serine protease 1. As to the kind of experiment: compound was tested in vitro for inhibition of serine protease Trypsin; inactive.
Experiment [8] addresses T2, Coagulation factor X. As to the kind of experiment: compound was tested in vitro for inhibition of Coagulation factor X.

Each structure is given as a SMILES string.

T2 sequence (P00742 41-179 limits assumed): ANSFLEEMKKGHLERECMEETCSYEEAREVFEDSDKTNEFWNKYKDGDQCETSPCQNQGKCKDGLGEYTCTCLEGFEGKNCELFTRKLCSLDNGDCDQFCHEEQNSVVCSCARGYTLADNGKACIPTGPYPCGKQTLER
T2 sequence (P00742 235-488 limits assumed): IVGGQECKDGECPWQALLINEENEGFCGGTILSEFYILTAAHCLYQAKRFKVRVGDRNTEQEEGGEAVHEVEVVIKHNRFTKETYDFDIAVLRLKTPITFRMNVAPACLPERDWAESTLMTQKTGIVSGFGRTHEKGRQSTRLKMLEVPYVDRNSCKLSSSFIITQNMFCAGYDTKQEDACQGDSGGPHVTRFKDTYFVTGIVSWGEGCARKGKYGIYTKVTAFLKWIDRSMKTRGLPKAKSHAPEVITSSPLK
T1 sequence (P07477 whole entry): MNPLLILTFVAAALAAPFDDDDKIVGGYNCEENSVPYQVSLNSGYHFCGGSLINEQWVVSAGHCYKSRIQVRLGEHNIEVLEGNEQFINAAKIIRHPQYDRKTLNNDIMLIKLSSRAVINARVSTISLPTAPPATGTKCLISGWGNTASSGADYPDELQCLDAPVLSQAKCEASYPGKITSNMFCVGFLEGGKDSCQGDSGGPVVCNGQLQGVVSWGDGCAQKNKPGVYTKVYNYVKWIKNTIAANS

`N=C(N)C1CCC[C@H](NC(=O)CN2CCC[C@H](NS(=O)(=O)CCc3ccccc3)C2=O)C1O` (stereo not given in full): the IC50 (usually the concentration needed to halve the response being measured) against Serine protease 1 [1] was 2500 nM; on Coagulation factor X [2] it was 2500 nM; against Prothrombin [3] it was 420 nM.

On to `N=C(N)C1CCC[C@H](NC(=O)CN2CCC[C@@H](NS(=O)(=O)Cc3ccccc3)C2=O)C1O` (stereo not given in full), for which the IC50 at Serine protease 1 [1] stood at 467 nM; against Coagulation factor X [2], 2500 nM; against Prothrombin [3], 157 nM.

Consider `N=C(N)C1CCC[C@H](NC(=O)CN2CCC[C@H](NS(=O)(=O)Cc3ccccc3)C2=O)C1O` (stereo not given in full), for which the IC50 was 791 nM against Serine protease 1 [1], 2500 nM at Coagulation factor X [2] and 6.2 nM against Prothrombin [3]. Also, the affinity at Prothrombin [4], expressed as Ki, was 1.01 nM.

With `CCCCS(=O)(=O)N[C@H]1CCCN(CC(=O)N[C@H]2CCCC(C(=N)N)C2O)C1=O` (stereo not given in full), the IC50 at Coagulation factor X [2] worked out at 2500 nM; on Prothrombin [3] it was 709 nM; against Trypsin II, 2500 nM.

In the case of `CC(C)(C)OC(=O)N[C@H]1CCCN(CC(=O)N[C@H]2CCCC(C(=N)N)C2O)C1=O` (stereo not given in full), the IC50 against Serine protease 1 [1] was 16800 nM; against Coagulation factor X [2] it was 2500 nM.

For the compound `N=C(N)C1CCC[C@H](NC(=O)CN2CCC[C@H](NC(=O)NS(=O)(=O)c3ccccc3)C2=O)C1O` (stereo not given in full), the IC50 result against Prothrombin [5], against Coagulation factor X [6] and on Serine protease 1 [7] was “Not Active” in each case.

Consider `N=C(N)C1CCC[C@H](NC(=O)CN2CCCC[C@H](NS(=O)(=O)c3ccccc3)C2=O)C1O` (stereo not given in full), for which the half-maximal inhibitory concentration (IC50) worked out at 16.6 nM on Serine protease 1 [1], 479 nM against Coagulation factor X [2] and 14.2 nM at Prothrombin [3].

With `N=C(N)C1CCC[C@H](NC(=O)CN2CCC[C@H](NC(=O)Cc3ccccc3)C2=O)C1O` (stereo not given in full), the IC50 result against Coagulation factor X [6] was “Not Active”; against Prothrombin [3], 2500 nM; against Trypsin II, over 2500 nM.

`N=C(N)C1CCC[C@H](NC(=O)CN2CCC[C@H](NS(=O)(=O)c3ccccc3)C2=O)C1O` (stereo not given in full): the IC50 was found to be 770 nM against Serine protease 1 [1], 1100 nM at Coagulation factor X [2] and 159 nM against Prothrombin [3].

Take `CCCC(CCC)C(=O)N[C@@H](CC(=O)OC)C(=O)N1CCC[C@@H]1C(=O)N[C@H]1CCCC(C(=N)N)C1O` (stereo not given in full): the IC50 at Serine protease 1 [1] is 1.36 nM; against Prothrombin [3], 1.1 nM.

Take `N=C(N)C1CCC[C@H](NC(=O)CN2CCC[C@H](NS(=O)(=O)c3cccc4ccccc34)C2=O)[C@@H]1O` (stereo not given in full): the IC50 against Coagulation factor X [2] was 2500 nM; against Prothrombin [3], 111 nM; against Trypsin II, 1020 nM.

Take `CC(C(=O)N[C@H]1CCCC(C(=N)N)C1O)N1CCC[C@H](NS(=O)(=O)Cc2ccccc2)C1=O` (stereo not given in full): the results for the IC50 against Coagulation factor X [2], against Prothrombin [3] and against Trypsin II were 2500 nM, 286 nM and 293 nM, respectively.

With `COC(=O)c1ccccc1CS(=O)(=O)N[C@H]1CCCCN(CC(=O)N[C@H]2CCCC(C(=N)N)C2O)C1=O` (stereo not given in full), the IC50 on Serine protease 1 [1] turned out to be 137 nM; at Coagulation factor X [2] it was 471 nM; on Prothrombin [3], 1.12 nM. Moreover, the Ki – broadly, the dissociation constant of the complex between target and ligand, obtained from inhibition or displacement – on Prothrombin [4] amounted to 0.85 nM.

Regarding `C[C@H](C(=O)N[C@H]1CCCC(C(=N)N)C1O)N1CCCC[C@H](NS(=O)(=O)Cc2ccccc2)C1=O` (stereo not given in full), the IC50 against Serine protease 1 [1] was over 2500 nM; at Coagulation factor X [6], “Not Active”; on Prothrombin [3], over 2500 nM.

For `N=C(N)C1CCC[C@H](NC(=O)CN2CCCC[C@H](NS(=O)(=O)Cc3ccccc3)C2=O)C1O` (stereo not given in full), the IC50 at Serine protease 1 [1] turned out to be 74.5 nM; on Coagulation factor X [2], 20.6 nM; at Prothrombin [3] it was 0.71 nM. At Prothrombin [4], this compound gave an inhibition constant Ki of 0.54 nM.

Consider `N=C(N)C1CCCC(NC(=O)CN2CC[C@H](NS(=O)(=O)Cc3ccccc3)C2=O)C1O` (stereo not given in full), for which the IC50 against Prothrombin [4] is 125 nM; against Coagulation factor X [8] it was 2500 nM; on Trypsin II, 538 nM.

For `N=C(N)C1CCC[C@H](NC(=O)CN2CCC[C@H](NS(=O)(=O)NC3CCCCC3)C2=O)C1O` (stereo not given in full), the IC50 was determined as 147 nM against Serine protease 1 [1], 1950 nM on Coagulation factor X [2] and 235 nM against Prothrombin [3].

With `CN[C@H](Cc1ccccc1)C(=O)N1CCC[C@@H]1C(=O)N[C@H]1CCCC(C(=N)N)C1O` (stereo not given in full), the half-maximal inhibitory concentration (IC50) was 1.52 nM on Serine protease 1 [1], over 2500 nM against Coagulation factor X [2] and 0.7 nM against Prothrombin [3].
